This note sets out measurements from US20140200825A1, “Method for predicting whether a cancer patient will not benefit from platinum-based chemotherapy agents” (Biodesix, Inc., priority 2012, published 2014).

Common to all, as to format: in vivo, human
One assay concerns NSCLC. The assay is described as follows: Subgroup of NSCLC patients treated with docetaxel, overall survival by VeriStrat group. To be noted: between VeriStrat Good and VeriStrat Poor patients, FIG. 6. The text has this: FIG. 6 is a Kaplan-Meier plot of overall survival for a subgroup analysis of one of the cohorts studied in Taguchi et al., Mass spectrometry to classify non-small-cell lung cancer patients for clinical outcome after treatment with epidermal growth factor receptor tyrosine kinase inhibitors: a multicohort cross-institutional study.
Given our previous experience with VeriStrat separation in NSCLC and other cancers, we believe that the difference shown in FIGS. 1-4 and 7A-7B lies principally in the Poor group—i.e., that they probably benefit very little from the combination of gemcitabine+cisplatin (or possibly other combinations of chemotherapy based on a platinum agent), but can get outcomes similar to Good patients if they receive gemcitabine alone, or another non-platinum agent, for example, docetaxel. Our results in a subgroup of NSCLC patients treated with docetaxel show no difference in overall survival between VeriStrat Good and VeriStrat Poor patients (hazard ratio 1.03, p=0.95, see FIG. 6 for a Kaplan-Meier plot)

Assay [1] relates to advanced non-small cell lung cancer (NSCLC). The assay is described as follows: LCCC0512 study, gemcitabine arm, outcome by VeriStrat group. To be noted: for median PFS: NSCLC patients treated with gemcitabine alone. Here is the method: The LCCC0512 study was a randomized phase II trial of first-line treatment with gemcitabine, erlotinib or the combination in elderly (over 70 years old) patients with advanced non-small cell lung cancer (NSCLC). Patients had stage IIIB or IV NSCLC and ECOG performance status of 0-2. Patients were randomized to receive either a maximum of 4 cycles of gemcitabine (1200 mg/m^2 days 1,8 every 21 days), 150 mg erlotinib daily, or a maximum of 4 cycles of gemcitabine (1000 mg/m^2 days 1,8 every 21 days) with concurrent 100 mg erlotinib daily. Primary endpoint was progression-free survival at 6 months. Patients randomized to receive gemcitabine monotherapy were encouraged to continue on study to receive erlotinib after progression. A total of 146 patients were enrolled. No significant differences in PFS or OS were found between treatment arms.
Pretreatment serum or plasma samples from patients in the LCCC0512 trial were available for VeriStrat testing. 124 samples were received. Sixty four samples were classified as VeriStrat Good, 39 as VeriStrat Poor and 7 as Indeterminate (undefined/equivocal classification). Of the remaining samples 13 could not be processed due to hemolysis and data could not be collected from one sample. For 5 samples where VeriStrat testing was performed, the samples could not be matched to clinical data from the trial. This left 98 samples with VeriStrat classification of Good or Poor and clinical data for statistical analysis. The majority of the samples tested were plasma, but where plasma was not available for a few patients, serum samples were used. Of the samples on which VeriStrat testing yielded a result of Good or Poor only 5 were identified as serum.
Survival analysis was carried out using SAS Enterprise Guide (SAS 9.2). Difference between groups was assessed using log-rank p values. Both univariate and multivariate hazard ratios were evaluated using Cox proportional hazard models. Kaplan-Meier plots and p values for contingency tables were generated using PRISM (GraphPad). For purposes of this disclosure, the data of interest pertain to the “gemcitabine” arm.

The test system of a further assay is ovarian cancer. The assay can be described thus: Ovarian cancer study, carboplatin and paclitaxel after surgery, outcome by VeriStrat group. The method, then:
The data shown in FIGS. 7A and 7B reflect VeriStrat testing on a subset of 96 patients from a larger study of about 160 patients. In this study, serum samples were taken from ovarian cancer patients before surgery and retrospectively analyzed with the VeriStrat test. After surgery, the patients were treated with carboplatin and paclitaxel.

The mark [2] stands for this setting: between VeriStrat groups, gemcitabine alone.

On to `CC(=O)O[C@@]12CO[C@@H]1C[C@H](O)[C@@]1(C)C(=O)[C@H](O)C3=C(C)[C@@H](OC(=O)[C@H](O)[C@@H](NC(=O)OC(C)(C)C)c4ccccc4)C[C@@](O)([C@@H](OC(=O)c4ccccc4)[C@H]21)C3(C)C` [docetaxel], for which, in the assay on NSCLC, the “hazard ratio, overall survival” value is on record as 1.03.

Take `Nc1ccn([C@@H]2O[C@H](CO)[C@@H](O)C2(F)F)c(=O)n1` [gemcitabine]: the entries for the “median PFS” value in assay [1] (VeriStrat Good group) and in assay [1] (VeriStrat Poor group) were 133 days and 137 days, respectively. Further, the “median OS” value in assay [1] (VeriStrat Good group, gemcitabine alone) was determined as 201 days; in assay [1] (VeriStrat Poor group, gemcitabine alone), 197 days. Moreover, the “hazard ratio (HR), OS by VeriStrat group” value in assay [1] (setting [2]) is given as 0.82. For the same compound, in assay [1] (setting [2]), the “hazard ratio (HR), PFS by VeriStrat group” value stood at 1.21.

carboplatin and paclitaxel: the “median disease free survival time” value is listed as 20 months with ovarian cancer (VeriStrat Good patients) and 11 months with ovarian cancer (VeriStrat Poor patients). Also, the “median overall survival time” value in the assay with ovarian cancer (VeriStrat Good patients) is given as “undefined”; in the assay on ovarian cancer (VeriStrat Poor patients), 21 months. The “Hazard Ratio, disease free survival” value in the assay with ovarian cancer (VeriStrat Good vs Poor, FIG. 7A) came out at 0.4906. Besides, the “hazard ratio, overall survival” value with ovarian cancer (VeriStrat Good vs Poor, FIG. 7B) is 0.3061.
